Test results as given in patent US20260109674A1, “ALLOSTERIC MODULATION OF MUSCARINIC ACETYLCHOLINE RECEPTOR EFFICACY” (The University of Toledo, priority 2022, published 2026).
Like-named read-outs stand apart in the source and are kept apart here.

Experiments:
[1] = target: T1, M1 muscarinic receptors expressed in CHO cells (Homo sapiens, UniProt P11229); assay: [3H]-arachidonic acid release screen with and without ACh and modulator; assay type: cell-based; settings: for Ratio of response of ACh with modulator to response of ACh alone, 0.1 μM ACh / Ratio of response of ACh with modulator to response of ACh alone, 100 μM ACh / Stimulation of [3H]AA release, No ACh (fraction of stimulation above the control): 10 μM modulator; for Modulation of ACh activity (in words): [3H]AA release; for Modulation of ACh activity (in words) / Intrinsic agonist activity (in words): modulator 10 μM; for Intrinsic agonist activity (in words): without ACh
T1 construct: expressed in transfected cells; host or cells: CHO (CHO-hM1, stably transfected)
T1 sequence (P11229 1-460): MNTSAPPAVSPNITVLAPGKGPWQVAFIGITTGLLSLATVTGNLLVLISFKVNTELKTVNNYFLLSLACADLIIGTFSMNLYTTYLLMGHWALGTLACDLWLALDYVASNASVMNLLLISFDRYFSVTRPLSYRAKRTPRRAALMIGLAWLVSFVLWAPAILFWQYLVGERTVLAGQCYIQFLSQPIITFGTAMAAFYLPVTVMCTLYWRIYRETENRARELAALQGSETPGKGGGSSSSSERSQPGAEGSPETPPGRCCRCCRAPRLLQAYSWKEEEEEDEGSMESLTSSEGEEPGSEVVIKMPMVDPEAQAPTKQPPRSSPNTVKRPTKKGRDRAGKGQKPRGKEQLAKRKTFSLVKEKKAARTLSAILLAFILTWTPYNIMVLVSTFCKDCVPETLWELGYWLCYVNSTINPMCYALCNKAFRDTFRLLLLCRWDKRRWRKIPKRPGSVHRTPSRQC
Description: CHO cells expressing human M1 muscarinic receptors were cultured at 37° C. in a 5% CO2 atmosphere in F12 medium supplemented with 5% fetal bovine serum, 100 units/mL penicillin, and 100 μg/mL streptomycin.
(§1) Measurement of [^3H]AA release was performed. Stably transfected CHO-hM1 or CHO-hM3 cells were seeded on 24-well plates (Greiner Bio-One GmbH, Frickenhausen, Germany) at a density of 5.0×10^4 cells/well in 0.5 ml of F-12 medium. Cells were incubated until they attached (approximately 3 h), followed by the addition of [^3H]AA to a final concentration of 0.05 μCi of [^3H]AA per well. The cells were then grown for 16 to 20 h before the assay was performed. [^3H]AA release was measured in Eagle's basal medium with 20 mM HEPES and 2 mg/ml fatty acid-free bovine serum albumin (EM-BSA). Cells were rinsed twice with EM-BSA, followed by the addition of EM-BSA media containing experimental agents and incubated for 1 h at 37° C. The assay was terminated by aspiration of the media, and the amount of [^3H]AA released was determined by liquid scintillation counting (Beckman-Coulter LS6500).
For some assays, pretreatment with phenoxybenzamine (POB) was employed, as indicated, to reduce the number of available receptors per cell. Stock POB was made up at 10 mM in ethanol and stored at −20° C. Each well was pretreated with 0.5 ml of the appropriate concentration in PBS with 1 mM CaCl2 and 1 mM MgCl2 (PBS++) for 30 min at 37° C., followed by 5 washes with PBS++. After pretreatment, the normal protocol was followed as above.
(§2) Tabulated [^3H]AA release data are represented as a fraction of maximal release in the presence of 100 μM ACh or as the fraction of release elicited by the appropriate concentration of ACh alone, as indicated dose-response curves were normalized to the maximal response of ACh without allosteric ligand. Some response curves were analyzed using the empirical four-parameter equation: […]
Disintegration per minute (DPM) values for a single compound were obtained in triplicate, and each compound was evaluated on three separate 24-well plates. The mean values for each condition from each of the three 24-well plates were used for the statistical analysis. The baseline mean was subtracted from each value, then normalized to the mean response produced by 100 μM ACh (set at 1.0). Statistical analyses were completed on the normalized values via one-way repeated measures ANOVA with Tukey's post hoc test. Statistically significant differences are noted as follows: *, p<0.05; **, p<0.01; ***, p<0.001.

[2] = tested on: wild-type zebrafish larvae; assay: General locomotor assay in zebrafish larvae (locomotor activity, repetitive behaviors); assay type: in vivo, Danio rerio; settings: for Effect on locomotor activity, angular velocity and turn angle (in words): spontaneous swimming period; for response vs control in vivo at 10 µM: Danio rerio, Table 5, 10 μM concentration, N = 12
Description: Five days post fertilization (dpf) zebrafish larvae were exposed to a range of nonlethal concentrations of the compounds in a 24-well plate with appropriate controls. The movement of each larval zebrafish was monitored with the Noldus behavior recording system (Noldus Information Technology, Leesburg VA) and quantified using EthoVision® XT 15 software (Noldus Information Technology, Leesburg VA). The plate was immediately placed in the incubator for a 30-minute exposure period. After 30 minutes, the plate was transferred to the Noldus system and swimming behavior was recorded in 100% light for 30 minutes to measure spontaneous swimming behavior. The light was switched off for 10 minutes (dark period) and then switched on for 10 minutes (light period), which was then repeated for two additional cycles. In total, the larvae were exposed to three cycles of alternating 10-minute dark and light periods (100% darkness-to-100% light). […]
All data for exposure and the behavioral end points were analyzed by one-way ANOVA (factor: drug conc) followed by a Dunnett's multiple comparisons test for post hoc significance between drug concentration and control group. Statistically significant differences are noted as follows: *, p<0.05; **, p<0.01; ***, p<0.001.

[3] = tested on: wild-type zebrafish larvae; assay: Maximum tolerated concentration (MTC) determination in zebrafish larvae; assay type: in vivo, Danio rerio
Description: Determination of maximum tolerated concentration was completed by placing 5 days post fertilization (dpf) wild-type zebrafish larvae in a 24 well plate at 6 fish per well, and one compound concentration per well. […] Death was determined by the absence of heartbeat. Additional endpoints were used to assess toxicity at non-lethal concentrations such as startle capacity (poke stimulus), abnormalities in swimming behavior (loss of dorsoventral balance), and gross morphological deformities (bent body). […] The MTC determination was used to select three doses of each compound (low, medium, high dose) to be used in behavioral assays.

[4] = target: T1, M1 muscarinic receptors expressed in CHO cells; assay: Full ACh dose-response curves of [3H]AA release fitted to the allosteric operational model; assay type: cell-based; settings: for Intrinsic Efficacy-B, τB / Activation cooperativity, A-B, β / Binding cooperativity, A-B, α: allosteric operational model; for Intrinsic Efficacy-B, τB: Em set to 2.0; for Activation cooperativity, A-B, β / Binding cooperativity, A-B, α: with ACh; for Effect on ACh potency and efficacy in full ACh dose-response curves (in words): modulator 10 μM
Description: as §1, §2
where X is the log of the concentration of the ligand used, Y is the amount of response, C50 is the concentration of the ligand that produces 50% of the maximal effect, Top and Bottom are the top and bottom plateaus of the curve, respectively, and n is related to the Hill slope for the curve. In some cases, families of response curves were analyzed according to the allosteric operational model:
where EM is the maximal response; A is the concentration of ACh; B is the concentration of the allosteric ligand; τA and τB represent the intrinsic efficacies of A and B, respectively; KA and KB are the equilibrium dissociation constants of A and B, respectively; and α and β represent the cooperativities between A and B in terms of binding and activation, respectively. Curve-fitting was carried out with GraphPad Prism, version 5.0 or 6.0 (San Diego CA).

[5] = after 24-hour exposure, Table 3
[6] = best-fit parameter, read-out: Affinity-B, KB (converted)
[7] = read-out: Variance of Turn Angle
[8] = after 24-hour exposure in separate experiments, Table 5

Structure (SMILES) | Ratio of response of ACh with modulator to response of ACh alone, 0.1 μM ACh ([1]; Table 1) | Ratio of response of ACh with modulator to response of ACh alone, 100 μM ACh ([1]; Table 1) | Stimulation of [3H]AA release, No ACh (fraction of stimulation above the control) ([1]; Table 1) | Modulation of ACh activity (in words) [1] | Intrinsic agonist activity (in words) [1] | Effect on locomotor activity, angular velocity and turn angle (in words) [2] | Maximum Tolerated Concentration [3, 5] [µM] | Intrinsic Efficacy-B, τB ([4]; best-fit parameter) | Activation cooperativity, A-B, β ([4]; best-fit parameter) | Binding cooperativity, A-B, α ([4]; best-fit parameter) | Kb [4, 6] [nM] | Effect on ACh potency and efficacy in full ACh dose-response curves (in words) [4] | Ratio of response of ACh with modulator to response of ACh alone, 0.1 μM ACh ([1]; Table 4, N = 4-5) | Ratio of response of ACh with modulator to response of ACh alone, 100 μM ACh ([1]; Table 4, N = 4-5) | Stimulation of [3H]AA release, No ACh (fraction of stimulation above the control) ([1]; Table 4, N = 4-5) | response vs control in vivo at 10 µM ([2]; read-out: Angular Velocity) [%] | response vs control in vivo at 10 µM ([2]; read-out: Total Distance Moved) [%] | response vs control in vivo at 10 µM [2, 7] [%] | Maximum Tolerated Concentration [3, 8] [µM] | other results
CCN(CC)CCOc1ccc(CN2C(=O)C(=O)c3ccccc32)cc1 [Compound 7, 1-(4-(2-(diethylamino)ethoxy)benzyl)indoline-2,3-dione] | 0.08 ± 0.02 | 1.11 ± 0.06 | 0.02 ± 0.01 | primarily decreased potency and slightly enhanced the efficacy of ACh activity | lacked intrinsic activity at the 10 μM concentration | did not significantly alter locomotor activity, angular velocity, and turn angle | 10 | 0.0317 ± 0.0205 | 0.991 ± 0.120 | 0.180 ± 0.0855 | 631 | decreased ACh potency with little impact on ACh efficacy | – | – | – | – | – | – | – | –
COc1c(I)cc(CN2C(=O)C(=O)c3ccccc32)cc1I [Compound 8a, 1-(3,5-diiodo-4-methoxybenzyl)indoline-2,3-dione] | 2.64 ± 0.10 | 1.62 ± 0.06 | 0.24 ± 0.04 | significant enhancement of ACh activity | lacked intrinsic activity at the 10 μM concentration | – | 30 | 0.174 ± 0.0289 | 3.26 ± 0.431 | 0.689 ± 0.241 | – | dramatically enhanced ACh efficacy | – | – | – | – | – | – | – | Concentration with significant effects on locomotor activity and repetitive behaviors ([2]; compared with BQCA): 1 µM; Signs of toxicity (in words) ([3]; concentrations up to 30 μM, the highest concentration tested): did not produce any signs of toxicity; Affinity-B, KB ([4]; best-fit parameter, values given are logarithms (cf. logKA in footnote)): −6.26 ± 0.152; Kb ([4]; read-out: affinity for M1 muscarinic receptors (KB)): 589 nM
COc1c(Br)cc(CN2C(=O)C(=O)c3ccccc32)cc1Br [Compound 8c, 1-(3,5-dibromo-4-methoxybenzyl)indoline-2,3-dione] | 2.15 ± 0.05 | 1.58 ± 0.01 | 0.23 ± 0.00 | – | – | – | 30 | 0.328 ± 0.0555 | 3.89 ± 0.610 | 0.980 ± 0.388 | 2950 | dramatically enhanced ACh efficacy | – | – | – | – | – | – | – | –
COc1cccc(CN2C(=O)C(=O)c3ccccc32)c1 [Compound 8j, 1-(3-methoxybenzyl)indoline-2,3-dione] | 1.06 ± 0.15 | 0.96 ± 0.10 | 0.02 ± 0.02 | – | – | significantly decreased locomotor activity and increased angular velocity and absolute turn angle | – | – | – | – | – | enhances ACh potency | – | – | – | – | – | – | – | –
COc1c(Br)cc(CN2C(=O)C(=O)c3cc(OC(F)(F)F)ccc32)cc1Br [GK-1-48] | – | – | – | – | – | significant increase in angular velocity | – | – | – | – | – | – | 3.04 ± 0.47 | 1.66 ± 0.07 | 0.15 ± 0.01 | 134 ± 16.5 | 80.1 ± 11.7 | 109 ± 11.9 | 3 | –
COc1c(Br)cc(Cn2cc(C(=O)O)c(=O)c3ccccc32)cc1Br [GK-1-50] | – | – | – | – | – | – | – | – | – | – | – | – | 2.77 ± 0.49 | 1.11 ± 0.12 | 0.47 ± 0.10 | 124 ± 21.8 | 87.9 ± 10.7 | 107 ± 11.2 | 10 | –
